Assay results taken from publication PMC11033320, “Activation of p53 signaling and regression of breast and prostate carcinoma cells by spirooxindole-benzimidazole small molecules” (Frontiers in Pharmacology, 2024).

Legend:
[1] = system: MALME-3M; experiment: NCI anticancer screening, Melanoma MALME-3M; format: cell-based; conditions: Homo sapiens, read-out: % Growth Inhibition (GI %)
Description: (§1) The compound has been processed according to standard method NCI-60 Human Tumor Cell Lines Screen for organic compound at development therapeutic program (DTP). Requests for access to this national resource can be submitted online at: […]

[2] = system: LOX IMVI; experiment: NCI anticancer screening, Melanoma LOX IMVI; format: cell-based; conditions: Homo sapiens, read-out: % Growth Inhibition (GI %)
Description: as §1

[3] = system: SN12C; experiment: NCI anticancer screening, Renal Cancer SN12C; format: cell-based; conditions: Homo sapiens, read-out: % Growth Inhibition (GI %)
Description: as §1

[4] = system: MDA-MB 231 cells; conditions: for inhibition: 5 µM
Description: Anticancer effect of the above-mentioned compounds was assayed using three human cancer cell lines. Triple negative breast cancer cell line (MDA-MB 231) and prostate cancer cell line (PC3) were cultured in DMEM (Lonza, USA) supplemented with 10% FBS. All cancer cells (4x10^3 cells/well) were seeded in sterile 96-well plates. After 24h, serial concentrations of the tested compounds were incubated with three cancer cell lines for 72 h at 37 °C in 5% CO2 incubator. […] The half maximal inhibitory concentration (IC50) values were calculated using the Graphpad Instat software.

[5] = system: HCT-15; experiment: NCI anticancer screening, Colon Cancer HCT-15; format: cell-based; conditions: Homo sapiens; HCT-15, 10 μM; read-out: % Growth Inhibition (GI %)
Description: as §1

[6] = system: MDA-MB-468; experiment: NCI anticancer screening, Breast Cancer MDA-MB-468; format: cell-based; conditions: Homo sapiens, read-out: % Growth Inhibition (GI %)
Description: as §1

[7] = system: 786-0; experiment: NCI anticancer screening, Renal Cancer 786-0; format: cell-based; conditions: Homo sapiens; 786-0, 10 μM; read-out: % Growth Inhibition (GI %)
Description: as §1

[8] = system: K-562; experiment: NCI anticancer screening, Leukemia K-562; format: cell-based; conditions: Homo sapiens, K562; K-562, 10 μM; read-out: % Growth Inhibition (GI %)
Description: as §1

[9] = system: HOP-62; experiment: NCI anticancer screening, Non-Small Cell Lung Cancer HOP-62; format: cell-based; conditions: Homo sapiens; HOP-62, 10 μM; read-out: % Growth Inhibition (GI %)
Description: as §1

[10] = system: M14; experiment: NCI anticancer screening, Melanoma M14; format: cell-based; conditions: Homo sapiens; M14, 10 μM; read-out: % Growth Inhibition (GI %)
Description: as §1

[11] = system: SF-295; experiment: NCI anticancer screening, CNS Cancer SF-295; format: cell-based; conditions: Homo sapiens; SF-295, 10 μM; read-out: % Growth Inhibition (GI %)
Description: as §1

[12] = system: HS 578T; experiment: NCI anticancer screening, Breast Cancer HS 578T; format: cell-based; conditions: Homo sapiens, read-out: % Growth Inhibition (GI %)
Description: as §1

[13] = system: NCI-H23; experiment: NCI anticancer screening, Non-Small Cell Lung Cancer NCI-H23; format: cell-based; conditions: Homo sapiens; NCI-H23, 10 μM; read-out: % Growth Inhibition (GI %)
Description: as §1

[14] = system: HCT-116; experiment: NCI anticancer screening, Colon Cancer HCT-116; format: cell-based; conditions: Homo sapiens; HCT-116, 10 μM; read-out: % Growth Inhibition (GI %)
Description: as §1

[15] = system: SF-268; experiment: NCI anticancer screening, CNS Cancer SF-268; format: cell-based; conditions: Homo sapiens; SF-268, 10 μM; read-out: % Growth Inhibition (GI %)
Description: as §1

[16] = system: BT-549; experiment: NCI anticancer screening, Breast Cancer BT-549; format: cell-based; conditions: Homo sapiens; BT-549, 10 μM; read-out: % Growth Inhibition (GI %)
Description: as §1

[17] = system: SK-MEL-5; experiment: NCI anticancer screening, Melanoma SK-MEL-5; format: cell-based; conditions: Homo sapiens; SK-MEL-5, 10 μM; read-out: % Growth Inhibition (GI %)
Description: as §1

[18] = system: MDA-MB-435; experiment: NCI anticancer screening, Melanoma MDA-MB-435; format: cell-based; conditions: Homo sapiens; MDA-MB-435, 10 μM; read-out: % Growth Inhibition (GI %)
Description: as §1

[19] = system: ACHN; experiment: NCI anticancer screening, Renal Cancer ACHN; format: cell-based; conditions: Homo sapiens, read-out: % Growth Inhibition (GI %)
Description: as §1

[20] = system: KM12; experiment: NCI anticancer screening, Colon Cancer KM12; format: cell-based; conditions: Homo sapiens; KM12, 10 μM; read-out: % Growth Inhibition (GI %)
Description: as §1

[21] = system: A549/ATCC; experiment: NCI anticancer screening, Non-Small Cell Lung Cancer A549/ATCC; format: cell-based; conditions: Homo sapiens, read-out: % Growth Inhibition (GI %)
Description: as §1

[22] = system: HCC-2998; experiment: NCI anticancer screening, Colon Cancer HCC-2998; format: cell-based; conditions: Homo sapiens; HCC-2998, 10 μM; read-out: % Growth Inhibition (GI %)
Description: as §1

[23] = system: SW-620; experiment: NCI anticancer screening, Colon Cancer SW-620; format: cell-based; conditions: Homo sapiens; SW-620, 10 μM; read-out: % Growth Inhibition (GI %)
Description: as §1

[24] = system: SNB-75; experiment: NCI anticancer screening, CNS Cancer SNB-75; format: cell-based; conditions: Homo sapiens; SNB-75, 10 μM; read-out: % Growth Inhibition (GI %)
Description: as §1

[25] = system: DU-145; experiment: NCI anticancer screening, DU-145; format: cell-based; conditions: Homo sapiens; DU-145, 10 μM; read-out: % Growth Inhibition (GI %)
Description: as §1

[26] = system: NCI-H322M; experiment: NCI anticancer screening, Non-Small Cell Lung Cancer NCI-H322M; format: cell-based; conditions: Homo sapiens, read-out: % Growth Inhibition (GI %)
Description: as §1

[27] = system: IGROV1; experiment: NCI anticancer screening, Ovarian Cancer IGROV1; format: cell-based; conditions: Homo sapiens, IGROV-1; IGROV1, 10 μM; read-out: % Growth Inhibition (GI %)
Description: as §1

[28] = system: HL-60(TB); experiment: NCI anticancer screening, Leukemia HL-60(TB); format: cell-based; conditions: Homo sapiens, read-out: % Growth Inhibition (GI %)
Description: as §1

[29] = system: OVCAR-4; experiment: NCI anticancer screening, Ovarian Cancer OVCAR-4; format: cell-based; conditions: Homo sapiens; OVCAR-4, 10 μM; read-out: % Growth Inhibition (GI %)
Description: as §1

[30] = system: SK-MEL-28; experiment: NCI anticancer screening, Melanoma SK-MEL-28; format: cell-based; conditions: Homo sapiens; SK-MEL-28, 10 μM; read-out: % Growth Inhibition (GI %)
Description: as §1

[31] = system: OVCAR-8; experiment: NCI anticancer screening, Ovarian Cancer OVCAR-8; format: cell-based; conditions: Homo sapiens; OVCAR-8, 10 μM; read-out: % Growth Inhibition (GI %)
Description: as §1

[32] = system: OVCAR-5; experiment: NCI anticancer screening, Ovarian Cancer OVCAR-5; format: cell-based; conditions: Homo sapiens; OVCAR-5, 10 μM; read-out: % Growth Inhibition (GI %)
Description: as §1

[33] = system: NCI/ADR-RES; experiment: NCI anticancer screening, Ovarian Cancer NCI/ADR-RES; format: cell-based; conditions: Homo sapiens, read-out: % Growth Inhibition (GI %)
Description: as §1

[34] = system: CCRF-CEM; experiment: NCI anticancer screening, Leukemia CCRF-CEM; format: cell-based; conditions: Homo sapiens, read-out: % Growth Inhibition (GI %)
Description: as §1

[35] = system: RXF 393; experiment: NCI anticancer screening, Renal Cancer RXF 393; format: cell-based; conditions: Homo sapiens; RXF 393, 10 μM; read-out: % Growth Inhibition (GI %)
Description: as §1

[36] = system: U251; experiment: NCI anticancer screening, CNS Cancer U251; format: cell-based; conditions: Homo sapiens, U-251; U251, 10 μM; read-out: % Growth Inhibition (GI %)
Description: as §1

[37] = system: HT29; experiment: NCI anticancer screening, Colon Cancer HT29; format: cell-based; conditions: Homo sapiens, HT-29; HT29, 10 μM; read-out: % Growth Inhibition (GI %)
Description: as §1

[38] = system: MCF7; experiment: NCI anticancer screening, Breast Cancer MCF7; format: cell-based; conditions: Homo sapiens; MCF7, 10 μM; read-out: % Growth Inhibition (GI %)
Description: as §1

| Compound | inhibition at 10 µM [1] [%] | inhibition at 10 µM [2] [%] | inhibition at 10 µM [3] [%] | IC50 [4] [µM] | inhibition [4] [%] | inhibition at 10 µM [5] [%] | inhibition at 10 µM [6] [%] | inhibition at 10 µM [7] [%] | inhibition at 10 µM [8] [%] | inhibition at 10 µM [9] [%] | inhibition at 10 µM [10] [%] | inhibition at 10 µM [11] [%] | inhibition at 10 µM [12] [%] | inhibition at 10 µM [13] [%] | inhibition at 10 µM [14] [%] | inhibition at 10 µM [15] [%] | inhibition at 10 µM [16] [%] | inhibition at 10 µM [17] [%] | inhibition at 10 µM [18] [%] | inhibition at 10 µM [19] [%] | also measured |
| --- | --- | --- | --- | --- | --- | --- | --- | --- | --- | --- | --- | --- | --- | --- | --- | --- | --- | --- | --- | --- | --- |
| O=C(c1nc2ccccc2[nH]1)[C@H]1[C@H](c2ccc(Cl)cc2Cl)C2CSCN2[C@]12C(=O)Nc1ccccc12 (stereo partly drawn) [Compound 6g, (3S,6′R)-6'-(1H-Benzo [d]imidazole-2-carbonyl)-7'-(2,4-dichlorophenyl)-3′,6′,7′,7a′-tetrahydro-1′H-spiro [indoline-3.5′-pyrrolo [1,2-c]thiazol]-2-one] | 86.2 | 67.2 | 63 | 6.22 | 56.7 ± 0.87 | 56 | 69.2 | 85.9 | 65.6 | 80.3 | 66.8 | 63.7 | 65.1 | 85.4 | 56.4 | 47 | 92.3 | 81.9 | 56 | 63.7 | melting point: 235 to 237 °C; inhibition at 10 µM [20]: 52.3%; inhibition at 10 µM [21]: 62%; inhibition at 10 µM [22]: 70.3%; inhibition at 10 µM [23]: 72.9%; inhibition at 10 µM [24]: 59.7%; inhibition at 10 µM [25]: 86.9%; inhibition at 10 µM [26]: 79.5%; inhibition at 10 µM [27]: 54.8%; inhibition at 10 µM [28]: 80.7%; inhibition at 10 µM [29]: 57.6%; inhibition at 10 µM [30]: 78.3%; inhibition at 10 µM [31]: 77%; inhibition at 10 µM [32]: 86.1%; inhibition at 10 µM [33]: 68.4%; inhibition at 10 µM [34]: 60.1%; inhibition at 10 µM [35]: 40.7%; inhibition at 10 µM [36]: 79%; inhibition at 10 µM [37]: 61.9%; inhibition at 10 µM [38]: 51% |
| O=C(c1nc2ccccc2[nH]1)[C@H]1[C@H](c2cccc(O)c2)C2CSCN2[C@]12C(=O)Nc1ccccc12 (stereo partly drawn) [Compound 6h, (3S,6′R)-6'-(1H-Benzo [d]imidazole-2-carbonyl)-7'-(3-hydroxyphenyl)-3′,6′,7′,7a′-tetrahydro-1′H-spiro [indoline-3.5′-pyrrolo [1,2-c]thiazol]-2-one] | 96.8 | 84.3 | 94.8 | 5.44 ± 0.167 | 40.2 | 103 | 104 | 101 | 92.5 | 96.4 | 97.3 | 105 | 80.4 | 99.3 | 89 | 88.5 | 107 | 93.7 | 93.5 | 92.8 | melting point: 205 to 207 °C; inhibition at 10 µM [20]: 89.4%; inhibition at 10 µM [21]: 95.4%; inhibition at 10 µM [22]: 101%; inhibition at 10 µM [23]: 91.8%; inhibition at 10 µM [24]: 74.5%; inhibition at 10 µM [25]: 105%; inhibition at 10 µM [26]: 93.5%; inhibition at 10 µM [27]: 87.9%; inhibition at 10 µM [28]: 104%; inhibition at 10 µM [29]: 82.1%; inhibition at 10 µM [30]: 95.3%; inhibition at 10 µM [31]: 97%; inhibition at 10 µM [32]: 92.9%; inhibition at 10 µM [33]: 97.1%; inhibition at 10 µM [34]: 108%; inhibition at 10 µM [35]: 104%; inhibition at 10 µM [36]: 98.9%; inhibition at 10 µM [37]: 104%; inhibition at 10 µM [38]: 92.8% |
